Assay results reported in PMC10666768, “Optimized peptide nanofibrils as efficient transduction enhancers for in vitro and ex vivo gene transfer” (Frontiers in Immunology, 2023).
Entries after “also recorded” stand apart in the source; their conditions may differ. Peptide text beside a SMILES is read from it.

Experiments:
[1] = Chemical stability of PNFs by HPLC and MALDI-TOF MS; assay type: physicochemical; details: 2 mg/ml PNFs in PBS, RT or 37°C, 10 min, 1 h, 24 h, 10 d; reversed-phase C18 HPLC, UV 214 nm
Description: RM-8 and D4 were prepared at 2 mg/ml in PBS and were incubated at room temperature (RT) or 37°C for 10 min, 1 hour, 24 hours, and 10 days. Aliquots (25 µL) of both samples were separated after 10 minutes, 1 hour, 24 hours, and 10 days and centrifuged at 13,000 x g for one minute. Supernatants were diluted with 100 µL 10% acetic acid, whereas the pellets were dissolved in 125 µL 6 M guanidinium chloride. All samples were analyzed in an Agilent 1100 Series HPLC system, using a reversed-phase BioBasicTM 18-HPLC column (Thermo Scientific) of dimensions 2.1 x 100 mm and particle size of 5 µm. Gradient elution was used for elution as follows (RM-8): 0 min/5%B, 1 min/20%B, and 15 min/40%B; and for D4: 0 min/5%B, 1 min/15%B, and 15 min/35/%B), being A, 0. 1% TFA in water, and B, 0.1% TFA in acetonitrile. The flow rate was 0.5 mL/min, and the detection was monitored online by UV absorption at 214 nm. ChemStation (version B.04.03, Agilent) was used for data acquisition and the HPLC system’s control.
Mass spectra were obtained with an Axima Confidence MALDI-TOF mass spectrometer (Shimadzu). Measurements were performed in positive ion reflectron mode. The mass range was 100–10000 Da. For each sample, 20 shots were accumulated per profile (100 profiles per spectra) using a laser power of 42% and a laser frequency of 50 Hz. TOFMix MALDI kit (Shimadzu) was used for external mass calibration. […]

human T cells = details: trypan blue after 7 days
human NK cells = details: 4-day incubation, propidium iodide, three donors
Description: NK cells were isolated from buffy coats of healthy donors by standard density-gradient centrifugation, using Ficoll-Paque (VWR, Cat: 17-1440-03) using the RosetteSep™ Human NK Cell Enrichment Cocktail ([sequence] Technologies, Cat: 15065). NK cells were cultured at 1×10^6 cells/ml in NK MACS medium (Miltenyi Biotec, Cat: 130-114-429) with 5% human AB serum (Sigma Aldrich, Cat: H4522-100ML), 500 U/ml IL-2 (Peprotech, Cat: 200-02) and 140 U/ml IL-15 (Peprotech, Cat: 200-15). […] 1.25×10^5 NK cells were seeded per well in a 48-well plate. […] Propidium Iodide (PI) (Miltenyi Biotec, Cat: 130-093-233) staining was used to determine the viability of NK cells.

NF-κB pathway = experiment: THP1-Dual cells, NF-κB pathway (SEAP); assay type: cell-based; details: 24 h
Description: To analyze if PNFs stimulate an immune response, different PNFs concentrations (5, 10, 30 and 50 µg/ml) and 0.1 µg/ml lipopolysaccharide (LPS, InvivoGen, Cat: tlrl-eklps) as a positive control were incubated with 70,000 THP1-Dual cells, a monocyte cell line that allows the simultaneous analysis of the NF-κB and interferon regulatory factor (IRF) pathway, which are major effectors of the innate immune response ([45]). After 24 h, cellular supernatants were analyzed for the activation of the NF-κB pathway by measuring the activity of secreted alkaline phosphatase (SEAP). Therefore, 20 µl supernatant was mixed with 120 µl Alkaline Phosphatase Blue Microwell Substrate (Sigma Aldrich, Cat: AB0100-1KT). After 10 min, 30 µl Alkaline Phosphatase Stop Solution (Sigma Aldrich, Cat: A5852) was added and adsorption at 620 nm was measured using VersaMax Microplate Reader (Molecular Devices). For analysis of IRF pathway, secreted Gaussia Luciferase was measured. 25 µl supernatant was transferred to a white 96 well microtiter plate and Gaussia substrate (82.6 µg/ml Colenterazine, PJK, Cat: 102172) was automatically added according to manufacturer’s protocol and Luminescence was measured by Orion II Microplate Luminometer (Berthold).

TZM-bl cells = system: TZM-bl cells
Description: To determine the effect of peptides on cellular metabolic activity, MTT (Thiazolyl blue tetrazolium bromide) Cell Growth Assay (Merck, Cat: CT02) and CellTiter-Glo Luminescent Cell Viability Assay (Promega, Cat: G7571) were performed. 10,000 TZM-bl cells or 50,000 Jurkat cells were seeded into 96-well plates and treated with indicated concentrations of peptides. For TZM-bl cells, the supernatants were removed after three days and 100 µl MTT (0.5 mg/ml) was added and incubated for 2.5 hours. For Jurkat cells, supernatants were removed after two days, and cells were incubated with 40 μl MTT (1 mg/ml) for 5 hours. Then the MTT solution was removed, and 100 µl 1:1 DMSO-Ethanol was added. The absorption was measured at 590 nm with baseline-corrected at 650 nm using VersaMax Microplate Reader (Molecular Devices). The CellTiter-Glo assay was performed according to the manufacturing protocol. 100 μl CellTiter-Glo Reagent 1:1 diluted in PBS (Gibco, 14200075) was added to pelleted Jurkat cells for 10 min followed by transferring 50 µl to white microplate, and luminescence was recorded by Orion microplate luminometer (Berthold).
(A) TZM-bl cells were treated […]
with different peptide concentrations. MTT assay was performed three days later. […] The cell viability in % was calculated by normalizing sample values to untreated control which was set to 100 %. […]

SMILES | Chemical stability by HPLC [1] | T cell viability after GALV-RV transduction (human T cells; four donors) | NK cell viability (human NK cells) | Activation of NF-κB pathway at 50 µg/ml (NF-κB pathway) | Cytotoxicity, TZM-bl cells (TZM-bl cells) | Cytotoxic effect on T cells, GALV-RV transduction (human T cells; two donors) | NK cell viability at highest concentration (human NK cells; 30 µg/ml)
CC[C@H](C)[C@H](NC(=O)[C@H](CCCNC(=N)N)NC(=O)[C@@H](N)CCCNC(=N)N)C(=O)N[C@@H](Cc1ccccc1)C(=O)N[C@H](C(=O)N[C@H](C(=O)N[C@@H](CO)C(=O)N[C@@H](CCSC)C(=O)O)[C@@H](C)CC)[C@@H](C)CC [D4] (H-RRIFIISM-OH) | chemically stable for 10 days; also recorded: single peak with unchanged retention time | neither D4 PNF nor the other transduction enhancers affected T cell viability | did not show any impact on cell viability | significant activation of the NF-kB pathway | – | – | –
CC[C@H](C)[C@H](NC(=O)[C@H](Cc1ccccc1)NC(=O)[C@@H](NC(=O)[C@@H](NC(=O)[C@@H](N)CCCNC(=N)N)[C@@H](C)O)[C@@H](C)CC)C(=O)N[C@H](C(=O)N[C@@H](CO)C(=O)N[C@@H](CCSC)C(=O)N[C@@H](Cc1ccc(O)cc1)C(=O)N[C@@H](CCCCN)C(=O)O)[C@@H](C)CC [RK-10] (H-RTIFIISMYK-OH) | – | – | – | – | not being cytotoxic | – | –
CC[C@H](C)[C@H](NC(=O)[C@H](Cc1ccccc1)NC(=O)[C@@H](NC(=O)[C@@H](NC(=O)[C@@H](N)CCCNC(=N)N)[C@@H](C)O)[C@@H](C)CC)C(=O)N[C@H](C(=O)N[C@@H](CO)C(=O)N[C@@H](CCSC)C(=O)O)[C@@H](C)CC [RM-8] (H-RTIFIISM-OH) | chemically stable over time; also recorded: chemically stable for 10 days | – | – | – | not being cytotoxic | not showing any cytotoxic effect | slightly reduced cell viability
